Laboratory results taken from patent US20170275344A1, “POLYPEPTIDES AND USES THEREOF AS A DRUG FOR TREATMENT OF AUTOIMMUNE DISORDERS” (Compugen Ltd., priority 2014, published 2017).
“And” between values parts separate entries of the source, which are not always exact repeats. Equal entries are not always repeated.

Key:
[1] = system: healthy human skin transplanted onto beige-SCID mice; test: Humanized psoriasis model: healthy human skin xenotransplants on beige-SCID mice injected with psoriatic patients' PBMCs; assay type: in vivo, mouse; details: for Healthy Skin (number of grafts) / Partial Psoriasiform With Tendency Towards Healthy skin (number of grafts) / Psoriasiform Skin (number of affected grafts, histological evaluation) / Total No. of Healthy Grafts (%): 28 days after start of treatment; for Epidermal thickness of grafts, Mean: mean of 9-10 mice, PBS mean 682; for proliferation index (% Ki-67 positive cells) in the xenografted skin: vs vehicle treated group
Text: In this model, psoriasis is induced in xenotransplants of healthy human skin transplanted onto beige severe combined immunodeficiency (SCID) mice followed by intradermal (i.d.) injection of IL-2 enriched Peripheral Blood Mononuclear Cells (PBMCs) isolated from blood of psoriasis patients (Nickoloff, 1995; Wrone-Smith, 1996 Gilhar et al., 2002, 2006, 2011). The activity of these compounds was compared to that of Enbrel, a TNF inhibitor which is an approved biological drug for treatment of psoriasis. As a control for model robustness, we used dexamethasone, a steroid with suppressive effects on inflammatory cytokines and chemokines such as TNF-alpha and interferon-gamma which cause severe psoriasis. All treatments were administered intradermally, except for dexamethasone which was given topically.
Study Protocol: A) Healthy human skin pieces with a width of 0.4 mm and surface area of 1.5×1.5 cm were provided from residual skin of routine plastic surgery procedures from the Plastic Surgery Department of the Rambam Medical Center, Israel. In addition, 20 mL blood samples were taken from psoriatic patients. B) Seventy (70) beige-severe combined immunodeficient mice (SCID) (weight˜20-25 g) were included in this study. Normal healthy human donor skin was transplanted onto the beige-SCID mice as previously described (Nickoloff et al., 1995; Wrone-Smith, 1996; Gilhar et al., 2002, 2006, 2011; Kalish et al., 2009) and the mice were divided into 7 groups. C) Peripheral Blood Mononuclear Cells (PBMCs) isolated from psoriatic patients' blood were cultured in the presence of IL-2 [Prospec, 100 U/mL of RPMI 1640 media, 10% human AB serum (Sigma, St. Louis, Mo.), 1% glutamine, 1% antibiotics (media components; Biological Industries, Kibbutz Beit Haemeck, Israel)] for 14 days, as previously described (Gilhar et al, 2002). D) Four weeks following engraftment, each mouse was injected intra-dermally (i.d.) into the grafted skin lesion, with 1×10^7 activated allogeneic enriched PBMCs from psoriatic patients (FIG. 20). Cells from different psoriasis patients were equally distributed between treatment groups so that each patient is represented in each treatment group. E) On the day of PBMCs injection into the skin grafts, mice were divided randomly into treatment groups (n=9-10 mice per group) and administration of all drugs started (FIG. 20). All tested compounds including the vehicle were given intradermally (intralesional), three times a week, except for dexamethasone which was given topically for 14 consecutive days (Table 3).
F) Twenty eight days after starting the injections and treatment, skin was harvested (FIG. 20). Grafts were analyzed for the following psoriatic parameters by histology: epidermal thickening (acanthosis), suprapapillary epidermal thinning (papillomatosis), hyperkeratosis, parakeratosis, orthokeratosis, agranulosis-hypogranulosis, appearance of neutrophils in the upper spinous layer or in the corneal cell layer—Munro microabscess, regular elongation of rete ridges, angiogenesis, edema and dilated tortuous blood vessels in the dermal papilla and mononuclear cell infiltrate in the papillary dermis. Epidermal thickness was measured as detailed below, and HLA-DR, ICAM-1, Ki-67 and immune infiltrates (anti-CD3 stain) were evaluated by immunohistochemistry (IHC).
The entire skin graft was excised and placed in 10% formal saline overnight. Then, the specimens were place in 70% ethanol and were embedded according to the standard H&E protocol. Histological assessment of the skin grafts was performed by light microscopy and evaluated by two blinded observers [the second observer evaluated random slides (about 25% of all slides) to compare the data obtained by the first observer. […] Epidermal thickness was determined with an ocular micrometer at a minimum of 50 points along the epidermis selected to represent points of maximal and minimal thickness.
Representative grafts were allocated for IHC analysis. […]

[2] = system: co-cultures of TcK and macrophages; test: TcK : macrophage co-culture, cytokine secretion; assay type: cell-based, human
Procedure: • Purified CD4+ cells (2×10^6 cells/ml) are activated for 6 days in complete medium containing IL-15 (100 ng/ml), IL-6 (100 ng/ml) and TNFα (25 ng/ml).
After 6 days in culture, T cells are washed 3 times in complete medium and counted
TcKs are added to macrophage culture following removal of existing culture media at […] (5×10^4 cells/well/CD4+ T cells plus 2×10^5 cells/well CD14^+ Macrophages). C1ORF32 ECD-Fc (SEQ ID NO:43) or Control IgG are added at 1, 3, 10, 30 μg/ml. For additional controls co-cultures are added with vehicle or with medium only (Wennink et al., 2012).
After 24 hrs of culture, cytokines (IL-10, IFN-α, IL-6, IL-12, CCL5, IL-13, IL-15, IL-17, CCL3, GM-CSF, IFNγ, TNFα, IL-1RA, IL-7, IL-1B, eotaxin, IL-2 IL-4 and IL-2R) are analyzed using ELISA and/or Luminex
Co-culture of TcK with autologeuos ex-vivo differentiated macrophages mimics one of the crucial pathways mediating synovial macrophage activation in RA thus serving as a translational tool for evaluating the therapeutic potential of drug candidates. Therefore the effect of C1ORF32 ECD-Fc (SEQ ID NO:43) was tested on the secretion of a range of pro-inflammatory and anti-inflammatory cytokines in such co-cultures. Two studies were carried out, one in which buffy coats from healthy volunteers was used and another study in which the responses of RA patients blood cells responses were compared to that of healthy voluntiers in which blood was used rather than buffy coats.

[3] = system: PBMCs from MS patients; test: MS patients' PBMCs: proliferation and cytokine secretion; assay type: cell-based, human
Procedure: PBMCs were taken from eight MS patients with diagnosed relapsing-remitting disease who have experienced a relapse 1-2 days prior to blood drawing.
PBMCs were plated in a flat-bottom 96-well plate at 1e6 cells/well. The cells were cultured in the presence of anti-CD3 (0.5 ug/ml), MS-specific peptide MBP85-96 (10 ug/ml), or tetanus toxoid peptide TT830-843 (10 ug/ml). C1ORF32 ECD-Fc (SEQ ID NO: 43) or Control Ig were added to the cuture at the indicated concentrations. Two replicate plates were set to study for the effect of C1ORF32 ECD-Fc (SEQ ID NO: 43) on proliferation and on pro-inflammatory and anti-inflammatory cytokines secretion. To test for proliferation, the cultures were pulsed on day +1 of culture with 1 uCi of tritiated thymidine and then harvested 3 days later on day +4 of culture. For cytokine analysis, super natantes from a replicate cultures were collected on day +4 of culture and tested using Millipore multiplex assay.

[4] = healthy volunteers, 24 hrs co-culture
[5] = PBMCs activated ex-vivo with MBP85-96

Row | Molecule | Healthy Skin (number of grafts) [1] | Psoriasiform Skin (number of affected grafts, histological evaluation) [1] | Total No. of Healthy Grafts (%) [1] | Epidermal thickness of graft ([1]; Source of graft (Patient) A) | Epidermal thickness of graft ([1]; Source of graft (Patient) B) | Epidermal thickness of graft ([1]; Source of graft (Patient) C) | Epidermal thickness of graft ([1]; Source of graft (Patient) D) | Epidermal thickness of graft ([1]; Source of graft (Patient) E) | Epidermal thickness of graft ([1]; Source of graft (Patient) G1) | Epidermal thickness of graft ([1]; Source of graft (Patient) H) | Epidermal thickness of graft ([1]; Source of graft (Patient) K) | Epidermal thickness of grafts, Mean [1] | further results
1 | C[C@@H]1C[C@H]2[C@@H]3CCC4=CC(=O)C=C[C@]4(C)[C@@]3(F)[C@@H](O)C[C@]2(C)[C@@]1(O)C(=O)CO [dexamethasone] | 7/10 | 2 and 2/10 | 70% | 359 μm | 596 μm | 183 μm | 377 μm | 391 μm | 266 μm | 262 μm | 289 μm | 315 μm | Partial Psoriasiform With Tendency Towards Healthy skin (number of grafts) [1]: 1; Partial Psoriasiform With Tendency Towards Healthy skin (number of grafts) ([1]; listed as Dexa): 1/10; Psoriasiform Skin (number of affected grafts, histological evaluation) ([1]; listed as Dexa): 2/10; Epidermal thickness of graft ([1]; Source of graft (Patient)): 204 μm; Epidermal thickness of graft ([1]; Source of graft (Patient) P): 232 μm
2 | C1ORF32 ECD-Fc (SEQ ID NO: 43): fusion protein of human C1ORF32 ECD fused to human immunoglobulin Fc (human-human fusion protein) | 5/9 | 4/9 | 55.5% and 55% | 904 μm | 397 μm | 603 μm | 441 μm | 335 μm | 598 μm | 253 μm | 268 μm | 508 μm | expression of HLA-DR, ICAM-1 and Ki-67 (IHC) ([1]; IHC of representative grafts): decreased expression; infiltration of T cells (CD3 positive cells) ([1]; IHC, vs PBS treated group): decreased infiltration of T cells; proliferation index (% Ki-67 positive cells) in the xenografted skin ([1]; IHC): trend towards decrease in proliferation index; proliferation index (% Ki-67 positive cells) in the xenografted skin ([1]; IHC, listed as C1ORF ECD-Fc (SEQ ID NO:43)): most pronounced reduction; Epidermal thickness of graft ([1]; Source of graft (Patient) G2): 775 μm; epidermal thickness compared with the vehicle-treated group ([1]; one-tailed t-Test, listed as C1ORF ECD-Fc (SEQ ID NO:43)): significant reduction in epidermal thickness; TNFa secretion ([2]; RA patients' (n=2) and healthy volunteers blood (n=1) samples): marked inhibition; IL-10, IL-15, IFNa, IL-7 secretion levels [2, 4]: No effect; secretion of IFNg, IL-1RA, IL-17, IL-12, IL-13, IL-6 and IL-2R [2, 4]: to a lesser extent also downregulated; secretion of TNFa, CCL5, CCL3, GM-CSF, and IL-5 [2, 4]: inhibited; IFNg, IL-17, TNFa secretion [3, 5]: inhibition; IL-4, IL-10, TGFβ and IL-6 secretion [3, 5]: increase; cell proliferation [3, 5]: inhibition of cells proliferation; proliferation, or secretion of IFNg, IL-17, and TNFa ([3]; absence of activation): no effect; IL-10, IL-4, TGFβ and IL-6 ([3]; absence of activation, in some of the donors): elevation
